Measured values reported in PMC11360041 (ACS Omega, 2024).

tested on: Fusarium graminearum; assay: microbe, parasite or virus in culture; type: cell-based; settings: read-out: Inhibition rate, Fg

SMILES	inhibition at 50 µg/mL [%]
COc1ccc(C=NNC(=O)Cn2ccc(=O)c3ccccc32)cc1OC [Compound 5]	14.3 ± 1.5
O=C(Cn1ccc(=O)c2ccccc21)NN=Cc1ccco1 [Compound 20]	14.3 ± 1.4
O=C(Cn1ccc(=O)c2ccccc21)NN=Cc1coc2ccccc12 [Compound 24]	19 ± 1.2
CN(C)c1ccc(C=NNC(=O)Cn2ccc(=O)c3ccccc32)cc1 [Compound 8]	23.8 ± 1.9
O=C(Cn1ccc(=O)c2ccccc21)NN=Cc1cccs1 [Compound 21]	9.5 ± 1.4
O=C(Cn1ccc(=O)c2ccccc21)NN=Cc1cscn1 [Compound 22]	2.4 ± 0.5
O=C(Cn1ccc(=O)c2ccccc21)NN=Cc1ccc([N+](=O)[O-])cc1 [Compound 15]	7.1 ± 1.3
O=C(Cn1ccc(=O)c2ccccc21)NN=Cc1ccc(Cl)cc1 [Compound 13]	2.4 ± 0.9
N#Cc1c(Cl)c(Cl)c(Cl)c(C#N)c1Cl [chlorothalonil, reference compound]	73 ± 0.9
O=C(Cn1ccc(=O)c2ccccc21)NN=Cc1ccccc1[N+](=O)[O-] [Compound 16]	23.8 ± 1.7

tested on: Sclerotinia sclerotiorum; assay: not given; type: cell-based; settings: read-out: Inhibition rate, Ss

SMILES	inhibition at 50 µg/mL [%]
COc1ccc(C=NNC(=O)Cn2ccc(=O)c3ccccc32)cc1OC [Compound 5]	24.4 ± 1.1
O=C(Cn1ccc(=O)c2ccccc21)NN=Cc1ccco1 [Compound 20]	36.6 ± 1.7
O=C(Cn1ccc(=O)c2ccccc21)NN=Cc1coc2ccccc12 [Compound 24]	12.2 ± 0.5
CN(C)c1ccc(C=NNC(=O)Cn2ccc(=O)c3ccccc32)cc1 [Compound 8]	12.2 ± 1.3
O=C(Cn1ccc(=O)c2ccccc21)NN=Cc1cccs1 [Compound 21]	17.1 ± 1.7
O=C(Cn1ccc(=O)c2ccccc21)NN=Cc1cscn1 [Compound 22]	7.3 ± 0.9
O=C(Cn1ccc(=O)c2ccccc21)NN=Cc1ccc([N+](=O)[O-])cc1 [Compound 15]	12.2 ± 1.4
O=C(Cn1ccc(=O)c2ccccc21)NN=Cc1ccc(Cl)cc1 [Compound 13]	7.3 ± 0.5
N#Cc1c(Cl)c(Cl)c(Cl)c(C#N)c1Cl [chlorothalonil, reference compound]	< 50
O=C(Cn1ccc(=O)c2ccccc21)NN=Cc1ccccc1[N+](=O)[O-] [Compound 16]	24.4 ± 1.1

tested on: Fusarium oxysporium f. sp. cucumeris; assay: not given; type: cell-based; settings: read-out: Inhibition rate, Fc

SMILES	inhibition at 50 µg/mL [%]
COc1ccc(C=NNC(=O)Cn2ccc(=O)c3ccccc32)cc1OC [Compound 5]	16.3 ± 1.3
O=C(Cn1ccc(=O)c2ccccc21)NN=Cc1ccco1 [Compound 20]	16.3 ± 2
O=C(Cn1ccc(=O)c2ccccc21)NN=Cc1coc2ccccc12 [Compound 24]	22.4 ± 1.2
CN(C)c1ccc(C=NNC(=O)Cn2ccc(=O)c3ccccc32)cc1 [Compound 8]	16.3 ± 1.6
O=C(Cn1ccc(=O)c2ccccc21)NN=Cc1cccs1 [Compound 21]	12.2 ± 1.6
O=C(Cn1ccc(=O)c2ccccc21)NN=Cc1cscn1 [Compound 22]	12.2 ± 1.6
O=C(Cn1ccc(=O)c2ccccc21)NN=Cc1ccc([N+](=O)[O-])cc1 [Compound 15]	24.5 ± 1.6
O=C(Cn1ccc(=O)c2ccccc21)NN=Cc1ccc(Cl)cc1 [Compound 13]	24.5 ± 1.3
N#Cc1c(Cl)c(Cl)c(Cl)c(C#N)c1Cl [chlorothalonil, reference compound]	100
O=C(Cn1ccc(=O)c2ccccc21)NN=Cc1ccccc1[N+](=O)[O-] [Compound 16]	18.4 ± 1.3

tested on: Physalospora piricola; assay: not given; type: cell-based; settings: read-out: Inhibition rate, Pp, 50 mg/L, Physalospora piricola

SMILES	inhibition at 50 µg/mL [%]
COc1ccc(C=NNC(=O)Cn2ccc(=O)c3ccccc32)cc1OC [Compound 5]	22.1 ± 1.5
O=C(Cn1ccc(=O)c2ccccc21)NN=Cc1ccco1 [Compound 20]	39.7 ± 1.3
O=C(Cn1ccc(=O)c2ccccc21)NN=Cc1coc2ccccc12 [Compound 24]	17.6 ± 1.2
CN(C)c1ccc(C=NNC(=O)Cn2ccc(=O)c3ccccc32)cc1 [Compound 8]	29.4 ± 2.3
O=C(Cn1ccc(=O)c2ccccc21)NN=Cc1cccs1 [Compound 21]	76.5 ± 2.7
O=C(Cn1ccc(=O)c2ccccc21)NN=Cc1cscn1 [Compound 22]	32.4 ± 1.3
O=C(Cn1ccc(=O)c2ccccc21)NN=Cc1ccc([N+](=O)[O-])cc1 [Compound 15]	72.1 ± 2.6
O=C(Cn1ccc(=O)c2ccccc21)NN=Cc1ccc(Cl)cc1 [Compound 13]	17.6 ± 1.5
N#Cc1c(Cl)c(Cl)c(Cl)c(C#N)c1Cl [chlorothalonil, reference compound]	91 ± 1.3

tested on: Phytophthora capsici; assay: not given; type: cell-based; settings: read-out: Inhibition rate, Pc

SMILES	inhibition at 50 µg/mL [%]
COc1ccc(C=NNC(=O)Cn2ccc(=O)c3ccccc32)cc1OC [Compound 5]	14.3 ± 0.9
O=C(Cn1ccc(=O)c2ccccc21)NN=Cc1ccco1 [Compound 20]	14.3 ± 1.1
O=C(Cn1ccc(=O)c2ccccc21)NN=Cc1coc2ccccc12 [Compound 24]	19 ± 0.9
CN(C)c1ccc(C=NNC(=O)Cn2ccc(=O)c3ccccc32)cc1 [Compound 8]	14.3 ± 1.8
O=C(Cn1ccc(=O)c2ccccc21)NN=Cc1cccs1 [Compound 21]	26.2 ± 2.3
O=C(Cn1ccc(=O)c2ccccc21)NN=Cc1cscn1 [Compound 22]	26.2 ± 1.5
O=C(Cn1ccc(=O)c2ccccc21)NN=Cc1ccc([N+](=O)[O-])cc1 [Compound 15]	14.3 ± 0.6
O=C(Cn1ccc(=O)c2ccccc21)NN=Cc1ccc(Cl)cc1 [Compound 13]	14.3 ± 1.3
N#Cc1c(Cl)c(Cl)c(Cl)c(C#N)c1Cl [chlorothalonil, reference compound]	73 ± 1.3
O=C(Cn1ccc(=O)c2ccccc21)NN=Cc1ccccc1[N+](=O)[O-] [Compound 16]	14.3 ± 0.7

tested on: Bipolaris maydis; assay: not given; type: cell-based; settings: read-out: Inhibition rate, Bm

SMILES	inhibition at 50 µg/mL [%]
COc1ccc(C=NNC(=O)Cn2ccc(=O)c3ccccc32)cc1OC [Compound 5]	11.1 ± 0.7
O=C(Cn1ccc(=O)c2ccccc21)NN=Cc1ccco1 [Compound 20]	20 ± 1.1
O=C(Cn1ccc(=O)c2ccccc21)NN=Cc1coc2ccccc12 [Compound 24]	11.1 ± 1.8
CN(C)c1ccc(C=NNC(=O)Cn2ccc(=O)c3ccccc32)cc1 [Compound 8]	13.3 ± 1.4
O=C(Cn1ccc(=O)c2ccccc21)NN=Cc1cccs1 [Compound 21]	17.8 ± 1.2
O=C(Cn1ccc(=O)c2ccccc21)NN=Cc1cscn1 [Compound 22]	8.9 ± 0.8
O=C(Cn1ccc(=O)c2ccccc21)NN=Cc1ccc([N+](=O)[O-])cc1 [Compound 15]	40 ± 1.3
O=C(Cn1ccc(=O)c2ccccc21)NN=Cc1ccc(Cl)cc1 [Compound 13]	8.9 ± 0.7
N#Cc1c(Cl)c(Cl)c(Cl)c(C#N)c1Cl [chlorothalonil, reference compound]	86 ± 1.2
O=C(Cn1ccc(=O)c2ccccc21)NN=Cc1ccccc1[N+](=O)[O-] [Compound 16]	13.3 ± 1.5

tested on: Alternaria solani; assay: not given; type: cell-based; settings: read-out: Inhibition rate, As

SMILES	inhibition at 50 µg/mL [%]
COc1ccc(C=NNC(=O)Cn2ccc(=O)c3ccccc32)cc1OC [Compound 5]	30.8 ± 2.1
O=C(Cn1ccc(=O)c2ccccc21)NN=Cc1ccco1 [Compound 20]	38.5 ± 0.5
O=C(Cn1ccc(=O)c2ccccc21)NN=Cc1coc2ccccc12 [Compound 24]	23.1 ± 1.3
CN(C)c1ccc(C=NNC(=O)Cn2ccc(=O)c3ccccc32)cc1 [Compound 8]	30.8 ± 2.3
O=C(Cn1ccc(=O)c2ccccc21)NN=Cc1cccs1 [Compound 21]	38.5 ± 1.3
O=C(Cn1ccc(=O)c2ccccc21)NN=Cc1cscn1 [Compound 22]	7.7 ± 1.2
O=C(Cn1ccc(=O)c2ccccc21)NN=Cc1ccc([N+](=O)[O-])cc1 [Compound 15]	30.8 ± 1.1
O=C(Cn1ccc(=O)c2ccccc21)NN=Cc1ccc(Cl)cc1 [Compound 13]	30.8 ± 1.3
N#Cc1c(Cl)c(Cl)c(Cl)c(C#N)c1Cl [chlorothalonil, reference compound]	100
O=C(Cn1ccc(=O)c2ccccc21)NN=Cc1ccccc1[N+](=O)[O-] [Compound 16]	30.8 ± 1.4

tested on: Rhizoctonia solani; assay: not given; type: cell-based; settings: read-out: Inhibition rate, Rs

SMILES	inhibition at 50 µg/mL [%]
COc1ccc(C=NNC(=O)Cn2ccc(=O)c3ccccc32)cc1OC [Compound 5]	12.5 ± 1.4
O=C(Cn1ccc(=O)c2ccccc21)NN=Cc1ccco1 [Compound 20]	35.7 ± 1.8
O=C(Cn1ccc(=O)c2ccccc21)NN=Cc1coc2ccccc12 [Compound 24]	17.9 ± 1.5
CN(C)c1ccc(C=NNC(=O)Cn2ccc(=O)c3ccccc32)cc1 [Compound 8]	35.7 ± 2.1
O=C(Cn1ccc(=O)c2ccccc21)NN=Cc1cccs1 [Compound 21]	35.7 ± 1.5
O=C(Cn1ccc(=O)c2ccccc21)NN=Cc1cscn1 [Compound 22]	26.8 ± 1.1
O=C(Cn1ccc(=O)c2ccccc21)NN=Cc1ccc([N+](=O)[O-])cc1 [Compound 15]	17.9 ± 1.3
O=C(Cn1ccc(=O)c2ccccc21)NN=Cc1ccc(Cl)cc1 [Compound 13]	12.5 ± 1.4
N#Cc1c(Cl)c(Cl)c(Cl)c(C#N)c1Cl [chlorothalonil, reference compound]	< 50
O=C(Cn1ccc(=O)c2ccccc21)NN=Cc1ccccc1[N+](=O)[O-] [Compound 16]	35.7 ± 1.5

tested on: Botrytis cinerea; assay: not given; type: cell-based; settings: read-out: Inhibition rate, Bc

SMILES	inhibition at 50 µg/mL [%]
COc1ccc(C=NNC(=O)Cn2ccc(=O)c3ccccc32)cc1OC [Compound 5]	18.8 ± 1.9
O=C(Cn1ccc(=O)c2ccccc21)NN=Cc1ccco1 [Compound 20]	20.8 ± 1.3
O=C(Cn1ccc(=O)c2ccccc21)NN=Cc1coc2ccccc12 [Compound 24]	20.8 ± 1.5
CN(C)c1ccc(C=NNC(=O)Cn2ccc(=O)c3ccccc32)cc1 [Compound 8]	25 ± 1.2
O=C(Cn1ccc(=O)c2ccccc21)NN=Cc1cccs1 [Compound 21]	31.3 ± 2.1
O=C(Cn1ccc(=O)c2ccccc21)NN=Cc1cscn1 [Compound 22]	25 ± 2.1
O=C(Cn1ccc(=O)c2ccccc21)NN=Cc1ccc([N+](=O)[O-])cc1 [Compound 15]	27.1 ± 2.4
O=C(Cn1ccc(=O)c2ccccc21)NN=Cc1ccc(Cl)cc1 [Compound 13]	14.6 ± 1.3
N#Cc1c(Cl)c(Cl)c(Cl)c(C#N)c1Cl [chlorothalonil, reference compound]	100
O=C(Cn1ccc(=O)c2ccccc21)NN=Cc1ccccc1[N+](=O)[O-] [Compound 16]	20.8 ± 1.2

tested on: TMV; assay: Inactivation effect of compounds against TMV in vivo; parameters: species or system tobacco mosaic virus; settings: Tobacco mosaic virus, read-out: relative inhibition rate (%) inactive effect

SMILES	inhibition at 100 µg/mL [%]	inhibition at 500 µg/mL [%]
COc1ccc(C=NNC(=O)Cn2ccc(=O)c3ccccc32)cc1OC [Compound 5]	0	11.3 ± 3.2
O=C(Cn1ccc(=O)c2ccccc21)NN=Cc1ccco1 [Compound 20]	0	29.7 ± 3.6
O=C(Cn1ccc(=O)c2ccccc21)NN=Cc1coc2ccccc12 [Compound 24]	0	33.5 ± 0.6
CN(C)c1ccc(C=NNC(=O)Cn2ccc(=O)c3ccccc32)cc1 [Compound 8]	0	28.1 ± 1.3
O=C(Cn1ccc(=O)c2ccccc21)NN=Cc1cccs1 [Compound 21]	0	12.3 ± 1.7
O=C(Cn1ccc(=O)c2ccccc21)NN=Cc1cscn1 [Compound 22]	0	23.9 ± 1.1
O=C(Cn1ccc(=O)c2ccccc21)NN=Cc1ccc([N+](=O)[O-])cc1 [Compound 15]	0	16.1 ± 4.8
O=C(Cn1ccc(=O)c2ccccc21)NN=Cc1ccc(Cl)cc1 [Compound 13]	0	18.6 ± 0.7
O=C(Cn1ccc(=O)c2ccccc21)NN=Cc1ccccc1[N+](=O)[O-] [Compound 16]	0	14.6 ± 4

tested on: watermelon anthracnose; assay: organism not typed; type: cell-based; settings: read-out: Inhibition rate, Wa

SMILES	inhibition at 50 µg/mL [%]
COc1ccc(C=NNC(=O)Cn2ccc(=O)c3ccccc32)cc1OC [Compound 5]	16.3 ± 1.2
O=C(Cn1ccc(=O)c2ccccc21)NN=Cc1ccco1 [Compound 20]	16.3 ± 1.6
O=C(Cn1ccc(=O)c2ccccc21)NN=Cc1coc2ccccc12 [Compound 24]	9.3 ± 0.7
CN(C)c1ccc(C=NNC(=O)Cn2ccc(=O)c3ccccc32)cc1 [Compound 8]	16.3 ± 1.7
O=C(Cn1ccc(=O)c2ccccc21)NN=Cc1cccs1 [Compound 21]	14 ± 0.7
O=C(Cn1ccc(=O)c2ccccc21)NN=Cc1cscn1 [Compound 22]	14 ± 1.7
O=C(Cn1ccc(=O)c2ccccc21)NN=Cc1ccc([N+](=O)[O-])cc1 [Compound 15]	34.9 ± 1.5
O=C(Cn1ccc(=O)c2ccccc21)NN=Cc1ccc(Cl)cc1 [Compound 13]	27.9 ± 2.3
N#Cc1c(Cl)c(Cl)c(Cl)c(C#N)c1Cl [chlorothalonil, reference compound]	100
O=C(Cn1ccc(=O)c2ccccc21)NN=Cc1ccccc1[N+](=O)[O-] [Compound 16]	23.3 ± 1.6
